Laboratory results: patent US20230049952A1, “METHODS AND COMPOUNDS FOR RESTORING MUTANT P53 FUNCTION” (PMV Pharmaceuticals, Inc., priority 2020, published 2023)

Test system: p53 signaling pathway in MT373 tumors
Assay: MT373 syngeneic sarcoma model: mouse p53 signaling pathway profiling panel
Assay type: in vivo

## CCn1c(C#CCNc2ccccc2)cc2cc(CNC3CCN(C)CC3)ccc21 [Compound 1, 1-Anilino-3-{1-ethyl-5-[(1-methyl-4-piperidylamino)methyl]-1H-indol-2-yl}-2-propyne]
150 mg/kg BIDx1, 48 h
  Sirt1 fold increase or percent reduction vs vehicle control: 13.36 fold or %
  Stat1 fold increase or percent reduction vs vehicle control: 1.72 fold or %
  Tnf fold increase or percent reduction vs vehicle control: 27.80 fold or %
  Traf1 fold increase or percent reduction vs vehicle control: 1.04 fold or %
  Trp53bp2 fold increase or percent reduction vs vehicle control: 8.14 fold or %
  Trp53 fold increase or percent reduction vs vehicle control: 22.40 fold or %
150 mg/kg BIDx1, 72 h
  Apex1 fold increase or percent reduction vs vehicle control: 15.68 fold or %
  Atm fold increase or percent reduction vs vehicle control: 18.10 fold or %
  Atr fold increase or percent reduction vs vehicle control: 1.15 fold or %
  Bag1 fold increase or percent reduction vs vehicle control: 21.87 fold or %
  Bax fold increase or percent reduction vs vehicle control: 21.38 fold or %
  Bbc3 fold increase or percent reduction vs vehicle control: 1.10 fold or %
  Bcl2 fold increase or percent reduction vs vehicle control: 6.74 fold or %
  Bid fold increase or percent reduction vs vehicle control: 2.75 fold or %
  Birc5 fold increase or percent reduction vs vehicle control: 24.85 fold or %
  Brca1 fold increase or percent reduction vs vehicle control: 17.44 fold or %
  Brca2 fold increase or percent reduction vs vehicle control: 19.53 fold or %
  Btg2 fold increase or percent reduction vs vehicle control: 23.10 fold or %
  Casp2 fold increase or percent reduction vs vehicle control: 8.98 fold or %
  Ccnb1 fold increase or percent reduction vs vehicle control: 18.77 fold or %
  Ccne1 fold increase or percent reduction vs vehicle control: 1.04 fold or %
  Ccng1 fold increase or percent reduction vs vehicle control: 11.26 fold or %
  Ccnh fold increase or percent reduction vs vehicle control: 5.78 fold or %
  Cdc25a fold increase or percent reduction vs vehicle control: 1.65 fold or %
  Cdk1 fold increase or percent reduction vs vehicle control: 22.76 fold or %
  Cdk4 fold increase or percent reduction vs vehicle control: 19.73 fold or %
  Cdkn1a fold increase or percent reduction vs vehicle control: 13.49 fold or %
  Cdkn2a fold increase or percent reduction vs vehicle control: 20.75 fold or %
  Chek1 fold increase or percent reduction vs vehicle control: 17.70 fold or %
  Cradd fold increase or percent reduction vs vehicle control: 16.72 fold or %
  Cul9 fold increase or percent reduction vs vehicle control: 1.54 fold or %
  Dapk1 fold increase or percent reduction vs vehicle control: 1.39 fold or %
  Dnmt1 fold increase or percent reduction vs vehicle control: 1.03 fold or %
  E2f1 fold increase or percent reduction vs vehicle control: 1.10 fold or %
  E2f3 fold increase or percent reduction vs vehicle control: 17.09 fold or %
  Egfr fold increase or percent reduction vs vehicle control: 13.15 fold or %
  Egr1 fold increase or percent reduction vs vehicle control: 38.21 fold or %
  Ep300 fold increase or percent reduction vs vehicle control: 2.74 fold or %
  Ercc1 fold increase or percent reduction vs vehicle control: 20.27 fold or %
  Esr1 fold increase or percent reduction vs vehicle control: 1.82 fold or %
  Fadd fold increase or percent reduction vs vehicle control: 1.18 fold or %
  Fas fold increase or percent reduction vs vehicle control: 12.10 fold or %
  Fasl fold increase or percent reduction vs vehicle control: 1.29 fold or %
  Foxo3 fold increase or percent reduction vs vehicle control: 1.08 fold or %
  Gadd45a fold increase or percent reduction vs vehicle control: 12.31 fold or %
  Hif1a fold increase or percent reduction vs vehicle control: 1.18 fold or %
  Il6 fold increase or percent reduction vs vehicle control: 61.14 fold or %
  Jun fold increase or percent reduction vs vehicle control: 20.41 fold or %
  Kras fold increase or percent reduction vs vehicle control: 1.08 fold or %
  Lig4 fold increase or percent reduction vs vehicle control: 1.27 fold or %
  Mdm2 fold increase or percent reduction vs vehicle control: 1.10 fold or %
  Mdm4 fold increase or percent reduction vs vehicle control: 13.89 fold or %
  Mel1 fold increase or percent reduction vs vehicle control: 17.68 fold or %
  Mlh1 fold increase or percent reduction vs vehicle control: 1.52 fold or %
  Msh2 fold increase or percent reduction vs vehicle control: 4.98 fold or %
  Myod1 fold increase or percent reduction vs vehicle control: 3.03 fold or %
  Nf1 fold increase or percent reduction vs vehicle control: 12.40 fold or %
  Nfkb1 fold increase or percent reduction vs vehicle control: 1.15 fold or %
  Pcna fold increase or percent reduction vs vehicle control: 21.44 fold or %
  Pmaip1 fold increase or percent reduction vs vehicle control: 1.41 fold or %
  Ppm1d fold increase or percent reduction vs vehicle control: 0.20 fold or %
  Prkca fold increase or percent reduction vs vehicle control: 4.15 fold or %
  Pten fold increase or percent reduction vs vehicle control: 1.14 fold or %
  Pttg1 fold increase or percent reduction vs vehicle control: 1.19 fold or %
  Rb1 fold increase or percent reduction vs vehicle control: 3.47 fold or %
  Rela fold increase or percent reduction vs vehicle control: 2.50 fold or %
  Rprm fold increase or percent reduction vs vehicle control: 1.51 fold or %
  Serpinb5 fold increase or percent reduction vs vehicle control: 1.00 fold or %
  Sesn2 fold increase or percent reduction vs vehicle control: 1.31 fold or %
  Sfn fold increase or percent reduction vs vehicle control: 7.33 fold or %
  Sirt1 fold increase or percent reduction vs vehicle control: 1.08 fold or %
  Stat1 fold increase or percent reduction vs vehicle control: 1.78 fold or %
  Tnf fold increase or percent reduction vs vehicle control: 1.15 fold or %
  Traf1 fold increase or percent reduction vs vehicle control: 1.41 fold or %
  Trp53bp2 fold increase or percent reduction vs vehicle control: 1.07 fold or %
  Trp53 fold increase or percent reduction vs vehicle control: 1.21 fold or %
150 mg/kg BID×1, 24 h
  Bbc3 mRNA increase: 2.27 fold
  Birc5 mRNA decrease: 53.57%
  Ccng1 mRNA increase: 6.84 fold
  Cdc25c mRNA decrease: 41.75%
  Cdk1 mRNA decrease: 64.58%
  Cdkn1a mRNA increase: 10.93 fold
  Chek1 mRNA decrease: 58.77%
  Egfr mRNA change: 47.37%
